One data set has as its target T1, human IL-23R (Homo sapiens, UniProt Q5VWK5).
T1 sequence (Q5VWK5 22-629): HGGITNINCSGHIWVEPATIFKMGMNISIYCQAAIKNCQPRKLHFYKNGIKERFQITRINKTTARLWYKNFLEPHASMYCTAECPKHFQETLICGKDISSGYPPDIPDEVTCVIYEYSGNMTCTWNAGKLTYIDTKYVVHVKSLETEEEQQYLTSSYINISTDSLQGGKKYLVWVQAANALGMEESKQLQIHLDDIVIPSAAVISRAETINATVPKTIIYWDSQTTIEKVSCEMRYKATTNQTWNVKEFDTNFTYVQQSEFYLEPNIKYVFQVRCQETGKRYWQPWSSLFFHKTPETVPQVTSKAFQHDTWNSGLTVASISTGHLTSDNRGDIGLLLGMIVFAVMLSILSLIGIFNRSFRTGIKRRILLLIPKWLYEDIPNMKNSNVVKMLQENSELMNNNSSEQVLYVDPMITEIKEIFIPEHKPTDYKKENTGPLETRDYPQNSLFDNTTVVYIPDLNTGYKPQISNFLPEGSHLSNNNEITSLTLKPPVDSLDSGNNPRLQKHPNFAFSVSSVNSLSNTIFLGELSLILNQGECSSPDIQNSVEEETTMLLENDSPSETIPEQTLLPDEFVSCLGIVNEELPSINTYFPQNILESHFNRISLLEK
The experiment in a line: biochemical. Put shortly:
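BRET displacement of a TAMRA-labelled reference compound from N-terminal Nanoluc-IL-23R fusion protein in membranes from stably transfected HEK293 cells. Incubation 2 h at room temperature, then Nanoluc substrate was added and the TAMRA/Nanoluc ratio read. IC50 and maximal displacement came from 4-parameter logistic fits.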

The target in data set [1] is IL-23 mediated signalling (Homo sapiens, UniProt Q5VWK5). The experiment in a line: Functional inhibition of IL-23 mediated STAT3 signalling (phospho-STAT3 MSD) in DB cells. It is filed as cell-based. Particulars: for Emax: read-out: hIL-23 (pSTAT3) antagonist % inhibition. From the text: Upon binding of IL-23, the IL-23R forms a heterodimer signalling complex together with IL-12R β1, which through the JAK2/STAT3 pathway promotes phosphorylation of STAT3 to form phospho-STAT3.
For compounds tested in this assay, the response was normalized relative to control values to calculate the IC50 and maximal inhibitory response from a concentration response curve of the compound in presence of a fixed concentration of human IL-23.
The assay procedure was as follows. […] Following preincubation of the DB cells with inhibitor for 15 min in a cell incubator (37 °C, 5% CO2), 20 µL of the prepared 3X the EC80 of hIL-23 solution was added to each well and incubated for 90 min in a cell incubator (37 °C, 5% CO2). For some wells buffer only or IL-23 only corresponding to the EC80 was added to obtain readouts needed for normalization. To terminate the assay, the plate was spun at 1000 G for 5 min to pellet cells, the supernatant removed using an 8-channel manual pipette, and then added 50 µL/well Complete Lysis Buffer from the MSD STAT3 kit (Cat# K150SVD, Mesoscale) to the cell pellet. To completely lyse cells to release phospho-STAT3 for detection, the plate was shaken for 10 min at room temperature (500 rpm) sealed with aluminium foil and placed at -80 °C for a minimum of 15 min. Detection of the phospho-STAT3 level in the cell lysate from the individual wells was determined using the MSD STAT3 kit (Cat# K150SVD, Mesoscale) and read on a Meso QuickPlex SQ 120 plate reader (Mesoscale).
For data analysis raw data counts from the Meso QuickPlex SQ 120 plate reader were normalized relative to the response by the EC80 of h1L-23 alone (no compound added) and the buffer level. Compound potency (IC50) and maximal inhibitory response (% inhibition) were estimated by computer-aided curve fitting using a 4-parameter logistic (4PL) nonlinear model. […] Table 3-2: hIL-23 (pSTAT3) antagonist IC50 and % inhibition

Data set [2] can be described thus: Peptide stability in simulated intestinal fluid (SIF). In kind it is in vitro ADME. Particulars: pig, 37 °C, porcine pancreatin; for remaining at 1 h, 10 µM: pH 6.8, 1 h; for remaining at 4 h, 10 µM: pH 6.8, 4 h, read-out: SIF (% remaining 4 h). Put shortly: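 Peptides were incubated at 37 °C with gentle shaking in pH 6.8 potassium phosphate SIF containing porcine pancreatin (10 g/L). Supernatants were analysed by LC-HRMS. Percent remaining at each timepoint, including 4 h, was calculated relative to time zero from absolute peak areas.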

A short description of data set [3]: Peptide stability in simulated gastric fluid (SGF). In kind it is in vitro ADME. The following applies: pig, simulated gastric fluid. Put shortly: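 Peptide incubated at 37 °C with gentle shaking in SGF (NaCl, pH 1.2). Samples centrifuged, diluted and analysed by LC-HRMS; percent remaining at each timepoint from absolute peak areas relative to time zero, with 4 h as the reference point.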

Where [4] appears, read: Table 3-2, maximal inhibitory response, DB cells, hIL-23 at EC80.
Setting [5] is: Table 3-2, DB cells, hIL-23 at EC80, read-out: hIL-23 (pSTAT3) antagonist IC50.

As a reminder, the IC50 is the concentration that gives 50% inhibition. As a reminder, the Ki is a measure of affinity in units of concentration, obtained from inhibition or displacement. Usually fraction remaining stands for what is left of the initial amount, in per cent.

Structures are written as SMILES. Like-named read-outs stand apart in the source and are kept apart here. *1 amine or outer side, *2 acyl side, *3 side chain or, on linkers, in order; H or OH if unused. Where a SMILES comes first, the peptide text is derived from it. Bridges are numbered along the chain shown (N, C = ends). [ ]: non-standard residue; d: D form. The star is where a group is joined. 2Nal = N[C@@H](Cc1ccc2ccccc2c1)C(=O)O; AEF = NCCOc1ccc(C[C@H](N)C(=O)O)cc1; X1 = O=C(Cc1ccc(CN[*:1])cc1)[*:2]; 3Pal = N[C@@H](Cc1cccnc1)C(=O)O; αMeL = CC(C)C[C@](C)(N)C(=O)O; CH2COCH2 = O=C(C[*:1])C[*:2]; 3Amb = NCc1cccc(C(=O)O)c1; Pyrrolidide = C1CCN(*)C1; Dab = NCC[C@H](N)C(=O)O

Regarding `CC(C)C[C@]1(C)NC(=O)[C@H](Cc2ccc3ccccc3c2)NC(=O)[C@H](Cc2ccc(OCCN)cc2)NC(=O)[C@@H]2CSCC(=O)CSC[C@H](NC(=O)[C@H](CO)NC(=O)Cc3ccc(cc3)CNC(=O)CC[C@@H](C(=O)N[C@@H](CCN)C(=O)N[C@@H](Cc3cccnc3)C(N)=O)NC1=O)C(=O)N[C@@H](Cc1c[nH]c3ccccc13)C(=O)N[C@@H](CCC(N)=O)C(=O)N2` [Ref 120, [4-Aminomethyl-phenylacetyl](1c)*SC(2a)WQC(2a)[Y(2-aminoethoxy)][2-Nal][2-Me-Leu]E(1c)[Dab][3-(3-Pyridyl)-Ala]-[NH2], reference compound] ([X1]SCWQC[AEF][2Nal][αMeL]E[Dab][3Pal]-NH2; linker 3-6 via CH2COCH2; lactam N-10), at human IL-23R, the “% displacement (hIL-23R NIuc)” value came out at 94%. Besides, the half-inhibitory concentration (IC50) is 0.011 nM against human IL-23R and 0.054 nM in data set [1]. For the same compound, on human IL-23R, the affinity, expressed as Ki, was 0.00938 nM. In addition, the Emax in data set [1] (setting [4]) is 101%. The amount remaining at 1 h, 10 µM in data set [2] was 82%; in data set [3] (pH 1.2, SGF (% remaining 1 h)), 84%. Also, the fraction remaining at 4 h, 10 µM in data set [2] is 39%; in data set [3] (pH 1.2, SGF (% remaining 4 h)) it was 81%.
As to `CC(C)C[C@]1(C)NC(=O)[C@H](Cc2ccc3ccccc3c2)NC(=O)[C@H](Cc2ccc(OCCN)cc2)NC(=O)[C@@H]2CSCC(=O)CSC[C@H](NC(=O)[C@H](CO)NC(=O)c3cccc(c3)CNC(=O)CC[C@@H](C(=O)N[C@@H](CCCNC(=N)N)C(=O)N[C@@H](Cc3cccnc3)C(N)=O)NC1=O)C(=O)N[C@@H](Cc1c[nH]c3ccccc13)C(=O)N[C@@H](CCC(N)=O)C(=O)N2` [Ref 78, [(3-Aminomethyl)benzoyl](1c)*SC(2a)WQC(2a)[Y(2-aminoethoxy)][2-Nal][2-Me-Leu]E(1c)R[3-(3-Pyridyl)-Ala]-[NH2], reference compound] ([3Amb]SCWQC[AEF][2Nal][αMeL]ER[3Pal]-NH2; linker 3-6 via CH2COCH2; lactam N-10), at human IL-23R, the “% displacement (hIL-23R NIuc)” value came to 100%, the IC50 stood at 0.025 nM and the affinity corresponds to a Ki of 0.0205 nM. In data set [1] (setting [5]), the half-maximal inhibitory concentration (IC50) worked out at 0.13 nM. In addition, in data set [1] (setting [4]), the Emax came to 100%. Further, in data set [2], the amount remaining at 1 h, 10 µM was 5% and the amount remaining at 4 h, 10 µM was 0%.
For the compound `CC(C)C[C@]1(C)NC(=O)[C@H](Cc2ccc3ccccc3c2)NC(=O)[C@H](Cc2ccc(OCCN)cc2)NC(=O)[C@@H]2CSCC(=O)CSC[C@H](NC(=O)[C@H](CO)NC(=O)Cc3ccc(cc3)CNC(=O)CC[C@@H](C(=O)N[C@@H](CO)C(N)=O)NC1=O)C(=O)N[C@@H](Cc1c[nH]c3ccccc13)C(=O)N[C@@H](CCC(N)=O)C(=O)N2` [Ref 81, [4-Aminomethyl-phenylacetyl](1c)*SC(2a)WQC(2a)[Y(2-aminoethoxy)][2-Nal][2-Me-Leu]E(1c)S-[NH2], reference compound], on human IL-23R, the “% displacement (hIL-23R NIuc)” value came out at 101%, the IC50 stood at 0.39 nM and the inhibition constant (Ki) is 0.318 nM. The IC50 in data set [1] (setting [5]) was found to be 21 nM. The Emax in data set [1] (setting [4]) amounted to 95%. Further, in data set [2], the amount remaining at 1 h, 10 µM was 99% and the fraction remaining at 4 h, 10 µM is 77%.
As for `CC(C)C[C@]1(C)NC(=O)[C@H](Cc2ccc3ccccc3c2)NC(=O)[C@H](Cc2ccc(OCCN)cc2)NC(=O)[C@@H]2CSCC(=O)CSC[C@H](NC(=O)[C@H](CO)NC(=O)Cc3ccc(cc3)CNC(=O)CC[C@@H](C(=O)N[C@H](CCCNC(=N)N)C(N)=O)NC1=O)C(=O)N[C@@H](Cc1c[nH]c3ccccc13)C(=O)N[C@@H](CCC(N)=O)C(=O)N2` [Ref 80, [4-Aminomethyl-phenylacetyl](1c)*SC(2a)WQC(2a)[Y(2-aminoethoxy)][2-Nal][2-Me-Leu]E(1c)[{d}R]-[NH2], reference compound] ([X1]SCWQC[AEF][2Nal][αMeL]E[dR]-NH2; linker 3-6 via CH2COCH2; lactam N-10), on human IL-23R, the “% displacement (hIL-23R NIuc)” value worked out at 98%, 0.18 nM corresponded to half-maximal inhibition (IC50) and the inhibition constant (Ki) was 0.15 nM. Also, the IC50 in data set [1] (setting [5]) was 11 nM. Further, the Emax in data set [1] (setting [4]) came to 97%. Besides, in data set [2], the amount remaining at 1 h, 10 µM is 84% and the fraction remaining at 4 h, 10 µM is 86%.
As to `CC(C)C[C@]1(C)NC(=O)[C@H](Cc2ccc3ccccc3c2)NC(=O)[C@H](Cc2ccc(OCCN)cc2)NC(=O)[C@@H]2CSCC(=O)CSC[C@H](NC(=O)[C@H](CO)NC(=O)Cc3ccc(cc3)CNC(=O)CC[C@@H](C(=O)N[C@@H](CCN)C(N)=O)NC1=O)C(=O)N[C@@H](Cc1c[nH]c3ccccc13)C(=O)N[C@@H](CCC(N)=O)C(=O)N2` [Ref 82, [4-Aminomethyl-phenylacetyl](1c)*SC(2a)WQC(2a)[Y(2-aminoethoxy)][2-Nal][2-Me-Leu]E(1c)[Dab]-[NH2], reference compound] ([X1]SCWQC[AEF][2Nal][αMeL]E[Dab]-NH2; linker 3-6 via CH2COCH2; lactam N-10), at human IL-23R, the “% displacement (hIL-23R NIuc)” value turned out to be 103%, the half-maximal inhibitory concentration (IC50) came out at 0.082 nM and the affinity corresponds to a Ki of 0.0665 nM. Further, the 50% inhibitory concentration (IC50) in data set [1] (setting [5]) turned out to be 11 nM. Besides, in data set [1] (setting [4]), the Emax turned out to be 97%. Moreover, in data set [2], the fraction remaining at 1 h, 10 µM is 95% and the fraction remaining at 4 h, 10 µM was 77%.
In the case of `CC(C)C[C@]1(C)NC(=O)[C@H](Cc2ccc3ccccc3c2)NC(=O)[C@H](Cc2ccc(OCCN)cc2)NC(=O)[C@@H]2CC(=O)N[C@H](CCCCNC(=O)CC[C@@H](C(=O)N[C@@H](CCN)C(=O)N[C@@H](Cc3cccnc3)C(N)=O)NC1=O)C(=O)N[C@@H]([C@@H](C)O)C(=O)N[C@@H](C(C)C)C(=O)N[C@@H](Cc1c[nH]c3ccccc13)C(=O)N[C@@H](CCC(N)=O)C(=O)N2` [Compound 3, [{d}K](1c)(6c)^†TVWQD(6c)[Y(2-aminoethoxy)][2-Nal][2-Me-Leu]E(1c)[Dab][3-(3-Pyridyl)-Ala]-[NH2]] ([dK]TVWQD[AEF][2Nal][αMeL]E[Dab][3Pal]-NH2; lactam 1-10, N-6), the IC50 on human IL-23R was found to be 0.091 nM; in data set [1] (setting [5]), 1.5 nM. Further, the figures for the Emax (on human IL-23R (read-out: % displacement (hIL-23R NIuc)); in data set [1] (setting [4])) were 105% and 101%, respectively.
On to `CC(C)C[C@]1(C)NC(=O)[C@H](Cc2ccc3ccccc3c2)NC(=O)[C@H](Cc2ccc(OCCN)cc2)NC(=O)[C@@H]2CCNC(=O)CC[C@H](NC(=O)[C@H](CO)NC(=O)Cc3ccc(cc3)CNC(=O)CC[C@@H](C(=O)N[C@@H](CCN)C(N)=O)NC1=O)C(=O)N[C@@H](Cc1c[nH]c3ccccc13)C(=O)N[C@@H](CCC(=O)N1CCCC1)C(=O)N2` [Ref 146, [4-Aminomethyl-phenylacetyl](1c)*SE(2c)W[Q(pyrrolidin)][Dab](2c)[Y(2-aminoethoxy)][2-Nal][2-Me-Leu]E(1c)[Dab]-[NH2], reference compound] ([X1]SEWE(Pyrrolidide)[Dab][AEF][2Nal][αMeL]E[Dab]-NH2; lactam 3-6, N-10), for which the “% displacement (hIL-23R NIuc)” value at human IL-23R (Table 3-1, maximal displacement of TAMRA-labelled peptide) is given as 105%. In addition, in data set [1] (setting [4]), the “hIL-23 (pSTAT3) antagonist % inhibition” value was 98%.

These data come from patent EP4471048A1, “PEPTIDE INHIBITORS OF INTERLEUKIN-23 RECEPTOR” (Zealand Pharma A/S, priority 2023, dated 2024).
